Here are results for 1 compound from US20110281944A1, “METHOD OF A RHEIN COMPOUND FOR INHIBITING PANCREATIC ISLET BETA-CELL DYSFUNCTION AND PREVENTING OR TREATING A PANCREATIC ISLET BETA-CELL DYSFUNCTION RELATED DISORDER” (Research Institute of Nephrology of Nanjing PLA, China, priority 2010, published 2011).

Each structure is given as a SMILES string.

The subject of experiment [1] is type 2 diabetic db/db mice. Description: Intraperitoneal glucose tolerance test (IPGTT) on db/db mice after treatment with rhein for 8 weeks. The settings on record: rhein 120 mg/Kg gavage 8 weeks. The class given is in vivo. The protocol: Administration to the experimental animals: Thirty diabetic db/db mice of 4 week old are randomly assigned to treatment group and control group. Additional fifteen normal db/m mice of 4 week old are used as normal control group. The treatment group of diabetic db/db mice is treated with rhein (120 mg/Kg, dissolved in 0.1% cellulose sodium) by gavage for continuous 8 weeks. The diabetic control group of db/db mice and the normal control group of db/m mice are administrated 0.1% cellulose sodium by gavage.
Experimental methods: The intraperitoneal glucose tolerance test (IPGTT) is carried out on the mice after administration for 8 weeks. The mice are fasted overnight, and then are administrated by i.p. injection of glucose at 0.5 g/kg body weight. Blood is collected at 0, 30, 60 and 120 min for detecting whole blood glucose level and insulin level and calculating the area under the curve (AUC) of insulin. The area under the curve of insulin during 0˜30 min (AUCINS0.30) is calculated as: (insulin level at 30 min[…]insulin level at 0 min)×15, for evaluating the ability of early phase insulin secretion.

Experiment [2] concerns insulin-resistant obese rats. Description: Hyperglycemic clamp in obese rats after treatment with rhein for 4 weeks. The class given is in vivo, Wistar rats. The text has this: Experimental animals: Insulin-resistant obese rats are 4-week in-bred female Wistar rats induced by feeding with high-sugar high-fat feedstuff (20% sugar, 10% lard, 2.5% cholesterol, 1% cholic acid and 66.5% normal feedstuff) for 3 weeks.
Administration to the experimental animals: Thirty insulin-resistant obese rats are randomly assigned to treatment group and control group. Additional fifteen normal Wistar rats of 7 week old are used as normal control group. The treatment group of insulin-resistant obese rats is treated with rhein (100 mg/Kg, dissolved in 0.1% cellulose sodium) by gavage for continuous 4 weeks. The insulin-resistant obese control group and the normal control group are administrated with 0.1% cellulose sodium by gavage.

Where [3] appears, read: rhein 100 mg/Kg by gavage for 4 weeks.

As for `O=C(O)c1cc(O)c2c(c1)C(=O)c1cccc(O)c1C2=O` [rhein], in experiment [1], the AUC-glucose is given as 1834 ± 151, the AUC-insulin turned out to be 812 ± 80 and the “AUCINSO-30 (AUC of insulin within 0-30 min)” value is recorded as 63 ± 32. In experiment [1] (0 min), this compound showed a Blood glucose of 7.6 ± 0.7 mmol/L and a plasma insulin of 5.3 ± 0.7 µg/L. In experiment [1] (30 min), this compound returned a Blood glucose of 19.5 ± 1.5 mmol/L and a plasma insulin of 9.5 ± 1.9 µg/L. Besides, in experiment [1] (60 min), the Blood glucose came out at 18.3 ± 2.0 mmol/L and the plasma insulin came out at 6.0 ± 0.7 µg/L. In experiment [1] (120 min), this compound displayed a Blood glucose of 10.4 ± 1.1 mmol/L and a plasma insulin of 5.9 ± 0.6 µg/L. Also, in experiment [2] (setting [3]), the “FBG (fasting blood glucose)” value amounted to 5.3 ± 0.5 mmol/L and the “SSBG (steady state blood glucose)” value was 14.9 ± 0.8 mmol/L. Also, the “GIR (glucose infusion rate)” value in experiment [2] (rhein 100 mg/Kg by gavage for 4 weeks, Table 1) turned out to be 32.2 ± 2.9 mg/kg/min. In experiment [2] (treatment with rhein for 4 weeks), the “glucose infusion rate (GIR) at steady-state” value was found to be 26.1 ± 2.9 mg/kg/min.
